# According to BindingDB's records for doi:10.1021/jm00166a009 (Ohio State University, 1990):
# Target: Alpha-2 adrenergic receptor (Homo sapiens)
# Assay: Stimulatory activity against serotonin secretion (SEC).
row,SMILES,IC50 [µM]
1,Oc1cc(CC2=NCCN2)cc(F)c1O,18.2
2,Oc1ccc(CC2=NCCN2)c(F)c1O,15.5
3,Oc1ccc(C(O)c2ncc[nH]2)cc1O (stereo not drawn),437
